According to US7763585B2, “Methods for inhibiting tumor cell proliferation” (priority 2003, dated 2010):
Where two headings read alike, the source gives them in different places.

Tests used:
Stat1:Stat3 = target: T1, Stat1:Stat3 (Mus musculus, UniProt P42225+P42227); test: EMSA, disruption of Stat1:Stat3 DNA-binding activity in vitro (hSIE probe); format: biochemical
T1 construct: endogenous in cells; host or cells: EGF-stimulated fibroblasts (nuclear extract)
Protocol: (§1) FIGS. 1A-D are photographs showing EMSA analyses of DNA-binding activities and effects of platinum complexes. Nuclear extracts containing activated Stat1, Stat3 and Stat5 are treated with the indicated concentrations of platinum complex ISSCPA-1, ISSCPA-3, ISSCPA-7, or PtCl4 for 30 min at room temperature prior to incubation with radiolabeled oligonucleotide probes. […] Positions of complexes of DNA with STAT, E2F1 or NFκB (p65, p50) in gel are labeled. Control lanes represent nuclear extracts that are not pre-incubated with platinum complexes.
(§2) Nuclear extracts were prepared from cell lines and used for EMSA as previously described (Turkson et al., 1998; Yu et al., 1995; Garcia et al., 1997). In some cases, cells were pre-treated with platinum complexes for the indicated times prior to harvesting. Where cells were stimulated with EGF (6 ng/ml), duration of treatment was 15 min. Nuclear extracts were pre-incubated with compounds for 30 min at room temperature prior to incubation with radiolabeled probe. The ^32P-radiolabeled oligonucleotide probes used are hSIE (high affinity sis-inducible element, m67 variant, 5′-[…]-3′) (SEQ ID NO:1) that binds both Stat1 and Stat3 (Garcia et al., 1997; Wagner et al., 1990), MGFe (mammary gland factor element from the bovine β-casein gene promoter, 5′-AGATTTCTAGGAATTCAA-3′) (SEQ ID NO:2) that binds Stat1 and Stat5 (Gouilleux et al., 1995; Seidel et al., 1995), the NF-κB binding oligo (5′-[…]-3′) (SEQ ID NO:3), and the oligonucleotide sequence from the DHFR promoter that binds E2F1.
(§3) Platinum compounds were evaluated for inhibitory activity against STAT DNA-binding in vitro.

NIH3T3v-Src = test: Cell proliferation of v-Src-transformed fibroblasts; format: cell-based, mouse; conditions: FIG. 6
Protocol: (§4) FIGS. 6A and 6B show the effects of platinum complexes on cell proliferation and viability. […] Values are the mean and S.D. of 3-4 independent determinations.
(§5) Proliferating cells were counted by phase-contrast microscopy for viable cells (using trypan blue exclusion. TUNEL staining was carried according to supplier's instructions to detect apoptotic cells. Cells (NIH3T3 or NIH3T3/v-Src) were first treated with or without compounds 24-48 h prior to staining.
(§6) The effects of platinum complexes on cell proliferation measured by [^3H]-thymidine incorporation were investigated.

[1] = system: Stat3-dependent luciferase reporter (pLucTKS3); test: Stat3-dependent firefly luciferase reporter in NIH3T3/v-Src/pLucTKS3; format: cell-based, mouse; conditions: NIH3T3/v-Src/pLucTKS3, FIG. 4
Protocol: FIGS. 4A-B show inhibition of Stat3-mediated gene expression in intact cells by platinum complexes. v-Src-transformed mouse fibroblasts that stably express Stat3-dependent (NIH3T3/v-Src/pLucTKS3) and Stat3-independent (NIH3T3/v-Src/pRLSRE) luciferase reporters were treated with platinum complexes for the indicated times. Cytosolic extracts were then prepared from cells for Stat3-dependent firefly luciferase activity (FIG. 4A) and Stat3-independent renilla luciferase measurements (FIG. 4B). Values are the means and S.D. of five independent assays. […]
Cytosolic lysates preparation from fibroblasts for luciferase assays or from baculovirus-infected Sf-9 insect cells have been previously described (Turkson et al., 1998; Turkson et al., 2001; Turkson et al., 1999; Zhang et al., 2000). Luciferase assays were performed as outlined in the supplier's (Promega) manual and measured with a luminometer. […]

Stat1:Stat1 = target: T2, Stat1:Stat1 (Mus musculus, UniProt P42225); test: EMSA, disruption of Stat1:Stat1 DNA-binding activity in vitro (hSIE probe); format: biochemical; conditions: for Level of DNA-binding activity of Stat1 (EMSA): EGF-stimulated fibroblast nuclear extracts, 30 min preincubation, FIG. 1A
T2 construct: endogenous in cells; host or cells: EGF-stimulated fibroblasts (nuclear extract)
T2 sequence (P42225 2-749 limits assumed): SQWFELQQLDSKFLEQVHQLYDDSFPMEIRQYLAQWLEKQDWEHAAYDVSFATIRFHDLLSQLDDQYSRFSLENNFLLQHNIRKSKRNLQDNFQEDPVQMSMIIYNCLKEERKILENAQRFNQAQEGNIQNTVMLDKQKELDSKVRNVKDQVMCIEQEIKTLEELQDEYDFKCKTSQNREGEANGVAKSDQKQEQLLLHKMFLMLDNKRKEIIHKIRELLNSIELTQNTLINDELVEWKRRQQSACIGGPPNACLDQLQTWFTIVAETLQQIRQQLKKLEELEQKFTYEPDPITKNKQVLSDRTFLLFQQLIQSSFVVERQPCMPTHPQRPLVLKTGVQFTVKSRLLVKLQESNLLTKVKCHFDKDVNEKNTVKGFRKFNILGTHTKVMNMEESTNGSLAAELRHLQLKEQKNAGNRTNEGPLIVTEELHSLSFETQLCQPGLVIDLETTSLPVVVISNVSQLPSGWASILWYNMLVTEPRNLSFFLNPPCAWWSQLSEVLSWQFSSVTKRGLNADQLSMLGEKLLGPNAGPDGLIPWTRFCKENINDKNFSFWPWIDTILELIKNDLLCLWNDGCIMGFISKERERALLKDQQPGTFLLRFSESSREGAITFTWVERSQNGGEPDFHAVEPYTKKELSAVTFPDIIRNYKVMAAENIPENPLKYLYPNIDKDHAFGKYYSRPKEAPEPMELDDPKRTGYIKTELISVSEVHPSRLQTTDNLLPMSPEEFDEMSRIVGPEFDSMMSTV
Protocol: as §1, §2, §3

normal mouse fibroblasts = test: Cell proliferation ([3H]-thymidine incorporation) of normal mouse fibroblasts; format: cell-based; conditions: FIG. 6; reduction in growth rate but not growth inhibitory
Protocol: as §4, §5, §6

T1 sequence (P42227 2-770 limits assumed, one chain of several): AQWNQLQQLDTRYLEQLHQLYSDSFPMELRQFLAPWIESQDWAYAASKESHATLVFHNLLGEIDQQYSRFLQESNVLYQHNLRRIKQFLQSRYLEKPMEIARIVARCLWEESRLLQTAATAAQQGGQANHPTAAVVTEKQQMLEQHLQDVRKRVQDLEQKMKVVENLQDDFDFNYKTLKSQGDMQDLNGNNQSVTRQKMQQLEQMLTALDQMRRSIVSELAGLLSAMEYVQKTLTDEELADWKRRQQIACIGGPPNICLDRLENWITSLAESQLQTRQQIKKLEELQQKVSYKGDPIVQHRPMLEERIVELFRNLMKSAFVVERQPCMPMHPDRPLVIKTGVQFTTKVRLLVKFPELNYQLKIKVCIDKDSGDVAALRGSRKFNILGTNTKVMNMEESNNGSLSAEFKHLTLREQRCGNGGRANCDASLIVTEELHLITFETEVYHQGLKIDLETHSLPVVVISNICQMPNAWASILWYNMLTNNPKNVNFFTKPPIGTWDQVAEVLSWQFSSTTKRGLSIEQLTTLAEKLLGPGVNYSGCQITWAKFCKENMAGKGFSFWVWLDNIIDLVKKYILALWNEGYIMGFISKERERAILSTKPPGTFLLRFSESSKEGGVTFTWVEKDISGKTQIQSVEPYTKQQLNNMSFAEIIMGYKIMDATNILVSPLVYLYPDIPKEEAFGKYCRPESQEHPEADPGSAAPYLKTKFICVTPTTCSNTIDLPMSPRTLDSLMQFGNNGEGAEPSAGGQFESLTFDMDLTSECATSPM

SMILES | IC50 (Stat1:Stat3; nuclear extracts pre-incubated 30 min at room temperature, hSIE probe, read-out: IC50 for disruption of STAT DNA-binding activity in vitro, Stat1:Stat3) | Growth of Src-transformed mouse fibroblasts ([3H]-thymidine incorporation) (NIH3T3v-Src) | Stat3-dependent induction of luciferase reporter [1] | Level of DNA-binding activity of Stat1 (EMSA) (Stat1:Stat1; hSIE probe) | IC50 (Stat1:Stat1; nuclear extracts pre-incubated 30 min at room temperature, hSIE probe, read-out: IC50 for disruption of STAT DNA-binding activity in vitro, Stat1:Stat1) | Growth of normal mouse fibroblasts ([3H]-thymidine incorporation) (normal mouse fibroblasts) | IC50 (Stat1:Stat3) | IC50 (Stat1:Stat1)
[NH2][Pt]([NH2])([Cl])([Cl])([Cl])[N+](=O)[O-] [ISS CPA-7] | 3.5 µM | strongly inhibited | significantly suppress | dose-dependent reduction | 4 µM | marginal effect |  | 
O=[N+]([O-])[Pt]1([Cl])([Cl])([Cl])[NH]CC[NH]1 [ISS CPA-1] |  | strongly inhibited | significantly suppress | dose-dependent reduction |  | marginal effect | 9.3 µM | 20 µM
